For two compounds, IC50, Activity and inhibition results are on record in ChEMBL document CHEMBL2311338, “On the preparation of indoxyl red from indican and some new characteristics” (Bioorg Med Chem Lett, 2013).

In one experiment the test system is SNU-638. The experiment in a line: Antiproliferative activity against human SNU638 cells. It counts as functional, cell-based.
Another experiment has as its system MCF7. The experiment in a line: Antiproliferative activity against human MCF7 cells. In kind it is functional, cell-based.
A short description of experiment [1]: Antiproliferative activity against human lung cancer cells. In kind it is functional, cell-based. As to conditions: Cancer cell lines.
Experiment [2] is described as follows: Antiproliferative activity against human leukemia cells. It counts as functional, cell-based. The note with it: Leukemia cell.
Experiment [3] can be described thus: Anticancer activity against 1 x 10^5 cells mouse NSF202 cells assessed as decrease in viable cells at 1 ug/ml measured after 2 days by trypan blue exclusion method. In kind it is functional.
The species entered for experiment [4] is Mus musculus. The experiment in a line: Anticancer activity against 2 x 10^5 cells mouse NSF202 cells assessed as cell growth inhibition at 1.02 uM measured after 2 days by trypan blue exclusion method. It counts as functional, cell-based.
For experiment [5], the species on record is Mus musculus. As to the kind of experiment: Anticancer activity against 1 x 10^5 cells mouse NSF202 cells assessed as cell growth inhibition at 1.02 uM measured after 2 days by trypan blue exclusion method. It counts as functional, cell-based.

Calls of active or inactive are those of the source. The rule behind the calls is not given here.

As usually defined, the IC50 is the point on the concentration scale where inhibition reaches its midpoint. The low end stands for inhibition by little substance, the high end for a need for much substance. Regarding `O=Nc1c(-c2c(O)[nH]c3ccc([N+](=O)[O-])cc23)[nH]c2ccccc12`, the 50% inhibitory concentration (IC50) in the experiment on SNU-638 amounted to 1.2 µM; in the experiment on MCF7, 1.4 µM; in experiment [1] it was 5.4 µM; in experiment [2] it was 9.2 µM.
Regarding `O=C1C(c2c[nH]c3ccccc23)=Nc2ccccc21` [INDOXYL RED], the Activity in experiment [3] was determined as 40%. For the same compound, the inhibition result in the experiment listed under Mus musculus [4] and in the experiment listed under Mus musculus [5] was “Active” in each case.
